# Measurements from patent publication US20050112099A1, “Tumor antigen BFA5 for prevention and / or treatment of cancer” (Aventis Pasteur, Ltd., priority 2003, published 2005).
# Where no end group is shown, it is not given here.
# Assays:
# [1] = system: HLA-A*0201 human T cells; experiment: IFN-γ ELISPOT of human T-cell cultures activated with BFA5 peptides; assay type: cell-based; settings: listing of the peptide is the result
# [2] = system: peptide-loaded T2 cells; experiment: 51Cr-release CTL assay using peptide-loaded T2 cells; assay type: cell-based, human; settings: listing of the peptide is the result
# [3] = Rabbit immunization with BFA5 peptides, IgG titer; assay type: in vivo; settings: for IgG titer × 10^5 (after second Immunization): KLH-coupled peptide with Freund's Incomplete Adjuvant, two weeks later; for IgG titer × 10^5 (after first Immunization): peptide emulsion with Freund's Complete Adjuvant
# Method: Polyclonal antisera were generated against the following series of 22- to 23-mer peptides of BFA5:
# Prebleed samples from rabbits were processed and stored at −20° C. Rabbits were immunized as follows: 1) the peptides were administered as an emulsion with Freund's Complete Adjuvant (FCA); and, 2) two weeks later, the peptides were coupled with Keyhole-Limpet Hemocyanin (KLH)-coupled and administered as an emulsion with Freund's Incomplete Adjuvant FIA.
substance,measurement,setting,value
AELQMTLKL,"BFA5 peptides eliciting high IFN-γ release (>200 spots/100,000 cells)",[1]; Donor AP10,AELQMTLKL
same,BFA5 peptides inducing CTL lysis of pulsed cells,[2]; Donor AP10,AELQMTLKL
same,BFA5 peptides inducing CTL lysis of pulsed cells,[2]; Donor AP31,AELQMTLKL
ALRIQDIEL,"BFA5 peptides eliciting high IFN-γ release (>200 spots/100,000 cells)",[1]; Donor AP10,ALRIQDIEL
ATCGMKVSI,"BFA5 peptides eliciting high IFN-γ release (>200 spots/100,000 cells)",[1]; Donor AP10,ATCGMKVSI
same,BFA5 peptides inducing CTL lysis of pulsed cells,[2]; Donor AP10,ATCGMKVSI
AVYSEILSV,"BFA5 peptides eliciting high IFN-γ release (>200 spots/100,000 cells)",[1]; Donor AP10,AVYSEILSV
GVTAEHYAV,"BFA5 peptides eliciting high IFN-γ release (>200 spots/100,000 cells)",[1]; Donor AP31,GVTAEHYAV
ILKEKNAEL,"BFA5 peptides eliciting high IFN-γ release (>200 spots/100,000 cells)",[1]; Donor AP10,ILKEKNAEL
same,"BFA5 peptides eliciting high IFN-γ release (>200 spots/100,000 cells)",[1]; Donor AP31,ILKEKNAEL
KCTALMLAV,"BFA5 peptides eliciting high IFN-γ release (>200 spots/100,000 cells)",[1]; Donor AP10,KCTALMLAV
KLH-AENTMLTSKLKEKQDKEILEAEI ({KLH}-AENTMLTSKLKEKQDKEILEAEI) [CLP 2981],IgG titer × 10^5 (after second Immunization),[3]; Rb1,256 × 10^5
same,IgG titer × 10^5 (after first Immunization),[3]; Rb1,8 × 10^5
same,IgG titer × 10^5 (after second Immunization),[3]; Rb2,64 × 10^5
same,IgG titer × 10^5 (after first Immunization),[3]; Rb2,4 × 10^5
KLH-DEILPSESKQKDYEENSWDTESL ({KLH}-DEILPSESKQKDYEENSWDTESL) [CLP 2979],IgG titer × 10^5 (after second Immunization),[3]; Rb1,256 × 10^5
same,IgG titer × 10^5 (after first Immunization),[3]; Rb1,12 × 10^5
same,IgG titer × 10^5 (after second Immunization),[3]; Rb2,512 × 10^5
same,IgG titer × 10^5 (after first Immunization),[3]; Rb2,25 × 10^5
KLH-MTKRKKTINLNIQDAQKRTALHW ({KLH}-MTKRKKTINLNIQDAQKRTALHW) [CLP 2977],IgG titer × 10^5 (after second Immunization),[3]; Rb1,256 × 10^5
same,IgG titer × 10^5 (after first Immunization),[3]; Rb1,25 × 10^5
same,IgG titer × 10^5 (after second Immunization),[3]; Rb2,64 × 10^5
same,IgG titer × 10^5 (after first Immunization),[3]; Rb2,6 × 10^5
KLH-NYNNHLKNRIYQYEKEKAETENS ({KLH}-NYNNHLKNRIYQYEKEKAETENS) [CLP 2982],IgG titer × 10^5 (after second Immunization),[3]; Rb1,64 × 10^5
same,IgG titer × 10^5 (after first Immunization),[3]; Rb1,2/2 × 10^5
same,IgG titer × 10^5 (after second Immunization),[3]; Rb2,32 × 10^5
same,IgG titer × 10^5 (after first Immunization),[3]; Rb2,2/2 × 10^5
KLH-RLTLNQEEEKRRNADILNEKIRE ({KLH}-RLTLNQEEEKRRNADILNEKIRE) [CLP 2980],IgG titer × 10^5 (after second Immunization),[3]; Rb1,1024 × 10^5
same,IgG titer × 10^5 (after first Immunization),[3]; Rb1,25 × 10^5
same,IgG titer × 10^5 (after second Immunization),[3]; Rb2,128 × 10^5
same,IgG titer × 10^5 (after first Immunization),[3]; Rb2,12 × 10^5
KLH-TSEKFTWPAKGRPRKIAWEKKED ({KLH}-TSEKFTWPAKGRPRKIAWEKKED) [CLP 2978],IgG titer × 10^5 (after second Immunization),[3]; Rb1,64 × 10^5
same,IgG titer × 10^5 (after first Immunization),[3]; Rb1,25/25 × 10^5
same,IgG titer × 10^5 (after second Immunization),[3]; Rb2,256 × 10^5
same,IgG titer × 10^5 (after first Immunization),[3]; Rb2,25/25 × 10^5
KSQEPAFHI,"BFA5 peptides eliciting high IFN-γ release (>200 spots/100,000 cells)",[1]; Donor AP31,KSQEPAFHI
KVMEINREV,"BFA5 peptides eliciting high IFN-γ release (>200 spots/100,000 cells)",[1]; Donor AP10,KVMEINREV
KVSIPTKAL,"BFA5 peptides eliciting high IFN-γ release (>200 spots/100,000 cells)",[1]; Donor AP10,KVSIPTKAL
same,BFA5 peptides inducing CTL lysis of pulsed cells,[2]; Donor AP31,KVSIPTKAL
MLKKEIAML,"BFA5 peptides eliciting high IFN-γ release (>200 spots/100,000 cells)",[1]; Donor AP31,MLKKEIAML
MLKLEIATL,"BFA5 peptides eliciting high IFN-γ release (>200 spots/100,000 cells)",[1]; Donor AP10,MLKLEIATL
same,"BFA5 peptides eliciting high IFN-γ release (>200 spots/100,000 cells)",[1]; Donor AP31,MLKLEIATL
same,BFA5 peptides inducing CTL lysis of pulsed cells,[2]; Donor AP31,MLKLEIATL
NLNYAGDAL,"BFA5 peptides eliciting high IFN-γ release (>200 spots/100,000 cells)",[1]; Donor AP10,NLNYAGDAL
same,"BFA5 peptides eliciting high IFN-γ release (>200 spots/100,000 cells)",[1]; Donor AP31,NLNYAGDAL
NLVDVYGNM,"BFA5 peptides eliciting high IFN-γ release (>200 spots/100,000 cells)",[1]; Donor AP10,NLVDVYGNM
same,BFA5 peptides inducing CTL lysis of pulsed cells,[2]; Donor AP10,NLVDVYGNM
QIMEYIRKL,"BFA5 peptides eliciting high IFN-γ release (>200 spots/100,000 cells)",[1]; Donor AP10,QIMEYIRKL
same,"BFA5 peptides eliciting high IFN-γ release (>200 spots/100,000 cells)",[1]; Donor AP31,QIMEYIRKL
same,BFA5 peptides inducing CTL lysis of pulsed cells,[2]; Donor AP31,QIMEYIRKL
QLQSKNMWL,"BFA5 peptides eliciting high IFN-γ release (>200 spots/100,000 cells)",[1]; Donor AP10,QLQSKNMWL
same,"BFA5 peptides eliciting high IFN-γ release (>200 spots/100,000 cells)",[1]; Donor AP31,QLQSKNMWL
same,BFA5 peptides inducing CTL lysis of pulsed cells,[2]; Donor AP31,QLQSKNMWL
SIPTKALEL,"BFA5 peptides eliciting high IFN-γ release (>200 spots/100,000 cells)",[1]; Donor AP10,SIPTKALEL
same,BFA5 peptides inducing CTL lysis of pulsed cells,[2]; Donor AP31,SIPTKALEL
SLKINLNYA,"BFA5 peptides eliciting high IFN-γ release (>200 spots/100,000 cells)",[1]; Donor AP10,SLKINLNYA
same,"BFA5 peptides eliciting high IFN-γ release (>200 spots/100,000 cells)",[1]; Donor AP31,SLKINLNYA
same,BFA5 peptides inducing CTL lysis of pulsed cells,[2]; Donor AP31,SLKINLNYA
SLSKILDTV,"BFA5 peptides eliciting high IFN-γ release (>200 spots/100,000 cells)",[1]; Donor AP10,SLSKILDTV
same,"BFA5 peptides eliciting high IFN-γ release (>200 spots/100,000 cells)",[1]; Donor AP31,SLSKILDTV
same,BFA5 peptides inducing CTL lysis of pulsed cells,[2]; Donor AP31,SLSKILDTV
SLTPLLLSI,"BFA5 peptides eliciting high IFN-γ release (>200 spots/100,000 cells)",[1]; Donor AP10,SLTPLLLSI
same,"BFA5 peptides eliciting high IFN-γ release (>200 spots/100,000 cells)",[1]; Donor AP31,SLTPLLLSI
same,BFA5 peptides inducing CTL lysis of pulsed cells,[2]; Donor AP31,SLTPLLLSI
SVPNKAFEL,"BFA5 peptides eliciting high IFN-γ release (>200 spots/100,000 cells)",[1]; Donor AP10,SVPNKAFEL
SVPNKALEL,"BFA5 peptides eliciting high IFN-γ release (>200 spots/100,000 cells)",[1]; Donor AP10,SVPNKALEL
TVSQKDVCL,"BFA5 peptides eliciting high IFN-γ release (>200 spots/100,000 cells)",[1]; Donor AP10,TVSQKDVCL
VFAADICGV,"BFA5 peptides eliciting high IFN-γ release (>200 spots/100,000 cells)",[1]; Donor AP31,VFAADICGV
VLKKKLSEA,"BFA5 peptides eliciting high IFN-γ release (>200 spots/100,000 cells)",[1]; Donor AP31,VLKKKLSEA
YLLHENCML,"BFA5 peptides eliciting high IFN-γ release (>200 spots/100,000 cells)",[1]; Donor AP10,YLLHENCML
same,"BFA5 peptides eliciting high IFN-γ release (>200 spots/100,000 cells)",[1]; Donor AP31,YLLHENCML
same,BFA5 peptides inducing CTL lysis of pulsed cells,[2]; Donor AP10,YLLHENCML
